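Five concentrations, 48 hours, 96-well plates. GI50 = concentration required for 50% inhibition of growth. TGI denotes the concentration required for complete inhibition of growth.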
Columns and labels:
Test in all cases: NCI anticancer screen, dose series, 48 h
OVCAR-8 ovarian = test system: OVCAR-8 ovarian
LOX IMVI melanoma = test system: LOX IMVI melanoma
SW-620 colon = test system: SW-620 colon
UACC-62 melanoma = test system: UACC-62 melanoma
HCC-2998 colon = test system: HCC-2998 colon
PC-3 prostate = test system: PC-3 prostate
SF-295 CNS = test system: SF-295 CNS
K-562 leukemia = test system: K-562 leukemia
786-0 renal = test system: 786-0 renal
MALME-3M melanoma = test system: MALME-3M melanoma

SMILES	GI50 (OVCAR-8 ovarian) [µM]	TGI (OVCAR-8 ovarian) [µM]	GI50 (LOX IMVI melanoma) [µM]	TGI (LOX IMVI melanoma) [µM]	GI50 (SW-620 colon) [µM]	TGI (SW-620 colon) [µM]	GI50 (UACC-62 melanoma) [µM]	TGI (UACC-62 melanoma) [µM]	GI50 (HCC-2998 colon) [µM]	TGI (HCC-2998 colon) [µM]	GI50 (PC-3 prostate) [µM]	TGI (PC-3 prostate) [µM]	GI50 (SF-295 CNS) [µM]	TGI (SF-295 CNS) [µM]	GI50 (K-562 leukemia) [µM]	TGI (K-562 leukemia) [µM]	GI50 (786-0 renal) [µM]	TGI (786-0 renal) [µM]	TGI (MALME-3M melanoma) [µM]
CCSc1nc(N)c(C#N)c(-c2ccc(OC)c(OC)c2)c1C#N	15.5	45.1	14.9	48.2	25.4	> 50	8.65	45.2	37.9	> 50	10.4	> 50	19.1	> 50	10.7	27.7	15.7	49.3	–
Cn1c(=O)c2[nH]c(CCS)nc2n(C)c1=O	–	> 100	–	> 100	–	> 100	–	> 100	–	–	–	> 100	–	> 100	–	> 100	–	> 100	> 100
Cc1cccc(/C=N/N=C(\N)NO)n1	–	> 100	–	52.8	–	> 100	–	8.83	–	> 100	–	–	–	> 100	–	> 100	–	> 100	> 100
COc1ccc(C#CC2=C(Br)C(=O)OC2)cc1	9.47	39	6.42	14	1.23	4.54	6.48	12.8	–	–	11.6	29.8	10.5	29.1	4.77	> 50	21.5	> 50	–
CC(C(=O)c1ccc(O)cc1)C1(O)C(=O)Nc2c(Cl)cc(Cl)cc21 (stereo not drawn)	–	> 100	–	> 67.8	–	> 100	–	21.7	–	> 100	–	–	–	> 100	–	32.6	–	> 100	> 100
CCOC(=O)C1=C(Nc2cccc3ccccc23)OCC1=O	–	> 100	–	–	–	> 100	–	> 100	–	> 100	–	–	–	–	–	> 100	–	> 100	> 100
CCC1C[N+]2=C(c3cc(OC)c(OC)cc3CC2)c2c1cc1n2CCc2cc(OC)c(OC)cc2-1 (stereo not drawn)	2.58	82.1	3.72	23.2	4.25	16.8	1.93	6.03	2.55	12.9	2.5	33.1	6.37	27.7	1.95	20.8	11	30.1	–
CC(C)(C)[Si](C)(C)O/N=C\c1cccc(O[Si](C)(C)C(C)(C)C)c1	–	39.6	–	35.5	–	34.7	–	32.4	–	34.7	–	–	–	31.9	–	35.4	–	35.1	62.1
COc1ccc(C2C(C(=O)O)=C(CO)Oc3cc4c(cc32)OCO4)c(OC)c1 (stereo not drawn)	–	> 100	–	> 100	–	> 100	–	> 100	–	–	–	–	–	> 100	–	> 100	–	> 100	> 100

Source: PubChem BioAssay (NCI)
